According to ChEMBL document CHEMBL1201862, “PubChem BioAssay data set” (2004):
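Step 1: Grow cells in 96-well plates. Step 2: Expose to compound for 48 hours at 5 concentrations. Step 3: Interpolate endpoints linearly; if unreached, use highest concentration. The concentration for 50% growth inhibition is given as GI50.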 Calls of active or inactive are those of the source. Cut-off read from the data, not from the text of the source: active = GI50 up to about 1.1 µM and inactive = higher.

Key:
Experiment in all cases: NCI-60 cell line screen, 48 h
LOX IMVI = test system: LOX IMVI
SK-MEL-5 = test system: SK-MEL-5
SK-OV-3 = test system: SK-OV-3
SNB-75 = test system: SNB-75
CCRF-CEM = test system: CCRF-CEM
RXF 393 = test system: RXF 393
OVCAR-8 = test system: OVCAR-8
OVCAR-3 = test system: OVCAR-3
OVCAR-4 = test system: OVCAR-4
SW-620 = test system: SW-620
HCT-15 = test system: HCT-15
SK-MEL-28 = test system: SK-MEL-28
UACC-62 = test system: UACC-62
NCI-H226 = test system: NCI-H226
RPMI-8226 = test system: RPMI-8226
K562 = test system: K562
HOP-92 = test system: HOP-92
TK-10 = test system: TK-10
ACHN = test system: ACHN

| SMILES | GI50 (LOX IMVI) | GI50 (SK-MEL-5) | GI50 (SK-OV-3) | GI50 (SNB-75) | GI50 (CCRF-CEM) | GI50 (RXF 393) | GI50 (OVCAR-8) | GI50 (OVCAR-3) | GI50 (OVCAR-4) | GI50 (SW-620) | GI50 (HCT-15) [µM] | GI50 (SK-MEL-28) | GI50 (UACC-62) | GI50 (NCI-H226) | GI50 (RPMI-8226) | GI50 (K562) | GI50 (HOP-92) | GI50 (TK-10) | GI50 (ACHN) |
| --- | --- | --- | --- | --- | --- | --- | --- | --- | --- | --- | --- | --- | --- | --- | --- | --- | --- | --- | --- |
| NC(Cc1cc(I)c(O)c(I)c1)C(=O)O (stereo unspecified) | 209 µM (inactive) | > 500 µM (inactive) | > 500 µM (inactive) | > 249 µM (inactive) | 255 µM (inactive) | 252 µM (inactive) | > 500 µM (inactive) | > 500 µM (inactive) | 211 µM (inactive) | 163 µM (inactive) | 307 | > 500 µM (inactive) | > 279 µM (inactive) | > 500 µM (inactive) | > 500 µM (inactive) | > 500 µM (inactive) | 13.6 µM (inactive) |  |  |
| COC(=O)/C=c1\s/c(=C\C(=O)OC)c2ccccc12 | > 100 µM (inactive) | > 100 µM (inactive) | > 100 µM (inactive) | 27.9 µM (inactive) | > 100 µM (inactive) | > 100 µM (inactive) | > 100 µM (inactive) | > 100 µM (inactive) | > 100 µM (inactive) | > 100 µM (inactive) | 33.8 | > 100 µM (inactive) | > 100 µM (inactive) | 57.8 µM (inactive) | > 100 µM (inactive) | > 100 µM (inactive) | > 100 µM (inactive) | > 100 µM (inactive) | > 100 µM (inactive) |
| CC(=O)Nc1cccc2[nH]c3ccccc3c(=O)c12 |  | 15.3 µM (inactive) | 32.1 µM (inactive) | 8.67 µM (inactive) | 21.5 µM (inactive) |  | 16.4 µM (inactive) | 20.1 µM (inactive) | 22.8 µM (inactive) | 21.4 µM (inactive) | 14.2 | 31.5 µM (inactive) | 13.8 µM (inactive) | 14.8 µM (inactive) | 14.7 µM (inactive) | 21.8 µM (inactive) |  | 20.4 µM (inactive) | 17.4 µM (inactive) |
| O=C(CC/C(C/C(=N/O)c1ccc(F)cc1)=N/O)N(Cc1ccccc1)Cc1ccccc1 | > 100 µM (inactive) | > 100 µM (inactive) |  | > 100 µM (inactive) | > 100 µM (inactive) | > 100 µM (inactive) | > 100 µM (inactive) | > 100 µM (inactive) | > 100 µM (inactive) | > 100 µM (inactive) | > 100 | > 100 µM (inactive) | > 100 µM (inactive) | > 100 µM (inactive) | > 100 µM (inactive) | > 100 µM (inactive) | > 100 µM (inactive) | > 100 µM (inactive) | > 100 µM (inactive) |
| COc1ccc(CCn2ccc(C)n2)c(OC)c1 | > 100 µM (inactive) | > 100 µM (inactive) | > 100 µM (inactive) | 34 µM (inactive) | > 100 µM (inactive) | > 100 µM (inactive) | > 100 µM (inactive) | > 100 µM (inactive) | > 100 µM (inactive) | > 100 µM (inactive) | > 100 | > 100 µM (inactive) | 90.8 µM (inactive) |  |  | > 100 µM (inactive) |  | > 100 µM (inactive) | > 100 µM (inactive) |
| CC(C)=C[C@@H]1C[C@H](C)[C@H]2CC[C@H](C)[C@H]3C(=O)C(O)=C(C)C(=O)[C@]123 | > 100 µM (inactive) | > 100 µM (inactive) | > 100 µM (inactive) | > 100 µM (inactive) | 99.1 µM (inactive) |  | > 100 µM (inactive) | > 100 µM (inactive) | 90.8 µM (inactive) | > 100 µM (inactive) | > 100 | > 100 µM (inactive) | > 100 µM (inactive) | 87.3 µM (inactive) | > 100 µM (inactive) | > 100 µM (inactive) | 42.7 µM (inactive) | > 100 µM (inactive) | > 100 µM (inactive) |
| CC(=O)C1CC(C)=CCC12C(=O)Nc1ccccc12 (stereo unspecified) | > 100 µM (inactive) | > 100 µM (inactive) | > 100 µM (inactive) | > 100 µM (inactive) | > 100 µM (inactive) | 13.9 µM (inactive) | > 100 µM (inactive) | > 100 µM (inactive) | > 100 µM (inactive) | > 100 µM (inactive) | > 100 | > 100 µM (inactive) | 68.1 µM (inactive) | > 100 µM (inactive) | > 100 µM (inactive) | > 100 µM (inactive) | > 100 µM (inactive) | > 100 µM (inactive) | > 100 µM (inactive) |
| CC12CCC3C(CCC4=CC(O)CCC43C=O)C1(O)CCC2c1ccc(=O)oc1 (stereo unspecified) | 0.00748 µM (active) | 0.00622 µM (active) | 0.0113 µM (active) | 0.011 µM (active) |  |  | 0.00622 µM (active) | 0.00368 µM (active) | 0.00723 µM (active) | 0.05 µM (active) | 0.0508 | 0.05 µM (active) | 0.05 µM (active) | 0.0303 µM (active) | 0.05 µM (active) | 0.05 µM (active) | 0.0164 µM (active) |  |  |
| CC(=O)OC(C)C(=O)C1c2cccc(O)c2C(=O)c2c(O)cc(C)cc21 (stereo unspecified) | 0.483 µM (active) | 0.357 µM (active) | 0.546 µM (active) | 0.52 µM (active) | 0.711 µM (active) | 0.259 µM (active) | 1.06 µM (active) | 0.427 µM (active) | 0.452 µM (active) | 0.502 µM (active) | 0.479 | 1.01 µM (active) |  | 0.319 µM (active) | 0.991 µM (active) | 0.354 µM (active) | 0.288 µM (active) | 1.42 µM (inactive) | 0.579 µM (active) |
| Cc1cc(N(CCC#N)CCC#N)ccc1/N=N/c1cc(Cl)ccc1Cl | 3.62 µM (inactive) | 16.4 µM (inactive) | 16.3 µM (inactive) | 13 µM (inactive) | 2.92 µM (inactive) | 10.5 µM (inactive) | 7.74 µM (inactive) | 5.51 µM (inactive) | 3.07 µM (inactive) | 2.36 µM (inactive) | 2.05 | 7.87 µM (inactive) | 10.1 µM (inactive) | 6.38 µM (inactive) | 5.35 µM (inactive) | 2.78 µM (inactive) |  | 11.1 µM (inactive) | 12.8 µM (inactive) |
| C[C@]12CCC(=O)C=C1CC[C@@H]1C2CC[C@]2(C)NC(=O)C(C#N)CC12 (stereo partly specified) |  | > 100 µM (inactive) | > 100 µM (inactive) | > 100 µM (inactive) | > 100 µM (inactive) | > 100 µM (inactive) | > 100 µM (inactive) | > 100 µM (inactive) | > 100 µM (inactive) | > 100 µM (inactive) | > 100 | > 100 µM (inactive) | > 100 µM (inactive) | > 100 µM (inactive) | > 100 µM (inactive) | > 100 µM (inactive) |  | > 100 µM (inactive) | > 100 µM (inactive) |
| COc1ccc2nc3c(C(=O)NCCN(C)C)cccc3cc2c1 | 1.63 µM (inactive) | 1.64 µM (inactive) | 2.21 µM (inactive) | 2.17 µM (inactive) | 1.78 µM (inactive) | 1.78 µM (inactive) | 1.47 µM (inactive) |  | 2.6 µM (inactive) | 1.42 µM (inactive) | 2.25 | 2.98 µM (inactive) | 1.46 µM (inactive) | 1.44 µM (inactive) | 2.16 µM (inactive) | 3.07 µM (inactive) | 2.28 µM (inactive) |  |  |
| CCCNC(=O)C(C)C1CCC2(C)C=CC(=O)C(C)=C2C1O (stereo unspecified) | > 100 µM (inactive) | > 100 µM (inactive) | > 100 µM (inactive) | > 100 µM (inactive) | > 100 µM (inactive) | > 100 µM (inactive) | > 100 µM (inactive) | > 100 µM (inactive) | > 100 µM (inactive) | > 100 µM (inactive) | > 100 | > 100 µM (inactive) | > 100 µM (inactive) | > 100 µM (inactive) | > 100 µM (inactive) | > 100 µM (inactive) | > 100 µM (inactive) |  |  |
| COc1ccc(C(c2ccc(C(C)C)cc(=O)c2O)c2c(O)cc3oc(-c4ccccc4)cc(=O)c3c2O)cc1 (stereo unspecified) | 14.6 µM (inactive) | 11.5 µM (inactive) | 12.5 µM (inactive) | 4.51 µM (inactive) | 4.04 µM (inactive) | 3.71 µM (inactive) | 6.9 µM (inactive) | 5.86 µM (inactive) | 7.53 µM (inactive) | 14.5 µM (inactive) | 6.9 | 17.1 µM (inactive) | 6.65 µM (inactive) |  | 6.21 µM (inactive) | 3.03 µM (inactive) | < 0.01 µM (active) | 9.42 µM (inactive) | 4.21 µM (inactive) |
| [N-]=[N+]=CC(=O)CCC(NC(=O)C(CCC(=O)C=[N+]=[N-])NC(=O)CCC(N)C(=O)O)C(=O)O (stereo unspecified) | > 100 µM (inactive) | > 100 µM (inactive) | > 100 µM (inactive) | > 100 µM (inactive) | > 100 µM (inactive) | > 100 µM (inactive) | > 100 µM (inactive) | > 100 µM (inactive) | > 100 µM (inactive) | > 100 µM (inactive) | > 100 | > 100 µM (inactive) | > 100 µM (inactive) | > 100 µM (inactive) | > 100 µM (inactive) | > 100 µM (inactive) | > 100 µM (inactive) |  |  |
| C[C@H]1COC(c2ccccn2)=N1 | > 100 µM (inactive) | > 100 µM (inactive) | > 100 µM (inactive) | > 100 µM (inactive) | > 100 µM (inactive) | > 100 µM (inactive) | > 100 µM (inactive) | > 100 µM (inactive) | > 100 µM (inactive) | > 100 µM (inactive) | > 100 | > 100 µM (inactive) | > 100 µM (inactive) | > 100 µM (inactive) | > 100 µM (inactive) | > 100 µM (inactive) | > 100 µM (inactive) |  |  |
